{"source": "the supplement of paper PMC10307832", "test_in_all_cases": "relative viability (nuclei count vs DMSO), 5 days (fraction); higher = more cells survive", "key": {"Doxorubicin + OSI-027": {"compound": "COc1cccc2c1C(=O)c1c(O)c3c(c(O)c1C2=O)C[C@@](O)(C(=O)CO)C[C@@H]3O[C@H]1C[C@H](N)[C@H](O)[C@H](C)O1 [Doxorubicin] + COc1cccc2cc(-c3nc([C@H]4CC[C@H](C(=O)O)CC4)n4ncnc(N)c34)[nH]c12 [OSI-027] (partner 0.5 µM)", "how_it_was_run": "(§1)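 Cells from lung cancer lines were seeded into 1536-well plates and, one day later, dosed by pin tool. Treatments were either a single drug or a fixed dose of an anchor drug with five library-drug doses (not always all listed) in √10 steps. After 5 days, nuclei were stained in a one-step fixation (final 0.05% Triton X-100, 1% formaldehyde, 1 ug/ml Hoechst) and counted on 4× images, and relative viability is the treated-to-vehicle nuclei ratio, as the median of duplicate plates.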"}, "Doxorubicin + Pictilisib": {"compound": "COc1cccc2c1C(=O)c1c(O)c3c(c(O)c1C2=O)C[C@@](O)(C(=O)CO)C[C@@H]3O[C@H]1C[C@H](N)[C@H](O)[C@H](C)O1 [Doxorubicin] + CS(=O)(=O)N1CCN(Cc2cc3nc(-c4cccc5[nH]ncc45)nc(N4CCOCC4)c3s2)CC1 [Pictilisib] (partner 1 µM)", "how_it_was_run": "as §1"}, "BAY61-3606 + Trametinib": {"compound": "COC1=C(C=C(C=C1)C2=CC3=NC=CN3C(=N2)NC4=C(C=CC=N4)C(=O)N)OC [BAY61-3606] + CC(=O)Nc1cccc(-n2c(=O)n(C3CC3)c(=O)c3c(Nc4ccc(I)cc4F)n(C)c(=O)c(C)c32)c1 [Trametinib] (partner 0.02 µM)", "how_it_was_run": "as §1"}, "BAY61-3606 + Dasatinib": {"compound": "COC1=C(C=C(C=C1)C2=CC3=NC=CN3C(=N2)NC4=C(C=CC=N4)C(=O)N)OC [BAY61-3606] + Cc1nc(Nc2ncc(C(=O)Nc3c(C)cccc3Cl)s2)cc(N2CCN(CCO)CC2)n1 [Dasatinib] (partner 0.075 µM)", "how_it_was_run": "as §1"}}}
{"cell line": "UMC-11", "values": [{"measurement": "relative viability", "setting": "Doxorubicin + OSI-027; first compound 0.001 µM", "result": 0.514}, {"measurement": "relative viability", "setting": "Doxorubicin + OSI-027; first compound 0.003162 µM", "result": 0.425}, {"measurement": "relative viability", "setting": "Doxorubicin + OSI-027; first compound 0.01 µM", "result": 0.482}, {"measurement": "relative viability", "setting": "Doxorubicin + OSI-027; first compound 0.03162 µM", "result": 0.436}, {"measurement": "relative viability", "setting": "Doxorubicin + OSI-027; first compound 0.1 µM", "result": 0.368}, {"measurement": "relative viability", "setting": "Doxorubicin + Pictilisib; first compound 0.001 µM", "result": 0.849}, {"measurement": "relative viability", "setting": "Doxorubicin + Pictilisib; first compound 0.003162 µM", "result": 0.927}, {"measurement": "relative viability", "setting": "Doxorubicin + Pictilisib; first compound 0.01 µM", "result": 0.769}, {"measurement": "relative viability", "setting": "Doxorubicin + Pictilisib; first compound 0.03162 µM", "result": 0.445}, {"measurement": "relative viability", "setting": "Doxorubicin + Pictilisib; first compound 0.1 µM", "result": 0.369}, {"measurement": "relative viability", "setting": "BAY61-3606 + Trametinib; first compound 0.02 µM", "result": 0.823}, {"measurement": "relative viability", "setting": "BAY61-3606 + Trametinib; first compound 0.06325 µM", "result": 0.63}, {"measurement": "relative viability", "setting": "BAY61-3606 + Trametinib; first compound 0.2 µM", "result": 0.509}, {"measurement": "relative viability", "setting": "BAY61-3606 + Trametinib; first compound 0.6325 µM", "result": 0.759}, {"measurement": "relative viability", "setting": "BAY61-3606 + Trametinib; first compound 2 µM", "result": 0.688}, {"measurement": "relative viability", "setting": "BAY61-3606 + Dasatinib; first compound 0.02 µM", "result": 0.464}, {"measurement": "relative viability", "setting": "BAY61-3606 + Dasatinib; first compound 0.06325 µM", "result": 0.587}, {"measurement": "relative viability", "setting": "BAY61-3606 + Dasatinib; first compound 0.2 µM", "result": 0.568}, {"measurement": "relative viability", "setting": "BAY61-3606 + Dasatinib; first compound 0.6325 µM", "result": 0.606}, {"measurement": "relative viability", "setting": "BAY61-3606 + Dasatinib; first compound 2 µM", "result": 0.524}]}
